According to PubChem BioAssay (NCI):
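Each compound was tested at five concentrations against cells in 96-well plates for 48 hours. TGI is the concentration that stops growth completely.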

Key:
Test in all cases: NCI tumour cell line growth inhibition, 48 h
786-0 renal = system: 786-0 renal
CAKI-1 renal = system: CAKI-1 renal
SF-539 CNS = system: SF-539 CNS
SR leukemia = system: SR leukemia
CCRF-CEM leukemia = system: CCRF-CEM leukemia
SNB-78 CNS = system: SNB-78 CNS
HCC-2998 colon = system: HCC-2998 colon
SK-MEL-2 melanoma = system: SK-MEL-2 melanoma
KM12 colon = system: KM12 colon
HT29 colon = system: HT29 colon
NCI-H23 lung = system: NCI-H23 lung
SK-MEL-5 melanoma = system: SK-MEL-5 melanoma
SF-268 CNS = system: SF-268 CNS
HOP-18 NSCLC = system: HOP-18 NSCLC
OVCAR-8 ovarian = system: OVCAR-8 ovarian
NCI-H460 lung = system: NCI-H460 lung
NCI-H226 lung = system: NCI-H226 lung
IGROV1 ovarian = system: IGROV1 ovarian
NCI-H522 lung = system: NCI-H522 lung
HCT-15 colon = system: HCT-15 colon
M19-MEL melanoma = system: M19-MEL melanoma
HOP-62 NSCLC = system: HOP-62 NSCLC
RXF 393 renal = system: RXF 393 renal
DMS 273 small cell lung = system: DMS 273 small cell lung
UO-31 renal = system: UO-31 renal
RPMI-8226 leukemia = system: RPMI-8226 leukemia
SF-295 CNS = system: SF-295 CNS
SK-MEL-28 melanoma = system: SK-MEL-28 melanoma
HL-60(TB) leukemia = system: HL-60(TB) leukemia
EKVX NSCLC = system: EKVX NSCLC
OVCAR-3 ovarian = system: OVCAR-3 ovarian
OVCAR-5 ovarian = system: OVCAR-5 ovarian
DMS 114 small cell lung = system: DMS 114 small cell lung
K-562 leukemia = system: K-562 leukemia
U251 CNS = system: U251 CNS
MALME-3M melanoma = system: MALME-3M melanoma
KM20L2 colon = system: KM20L2 colon
M14 melanoma = system: M14 melanoma
SW-620 colon = system: SW-620 colon
MOLT-4 leukemia = system: MOLT-4 leukemia
SNB-19 CNS = system: SNB-19 CNS
A549 NSCLC = system: A549 NSCLC
UACC-257 melanoma = system: UACC-257 melanoma
COLO 205 colon = system: COLO 205 colon
XF 498 CNS = system: XF 498 CNS
UACC-62 melanoma = system: UACC-62 melanoma
HCT-116 colon = system: HCT-116 colon
SK-OV-3 ovarian = system: SK-OV-3 ovarian
DLD-1 colon = system: DLD-1 colon
LOX IMVI melanoma = system: LOX IMVI melanoma
SNB-75 CNS = system: SNB-75 CNS
ACHN renal = system: ACHN renal
HOP-92 NSCLC = system: HOP-92 NSCLC
OVCAR-4 ovarian = system: OVCAR-4 ovarian
TK-10 renal = system: TK-10 renal
RXF-631 renal = system: RXF-631 renal
SN12C renal = system: SN12C renal
A498 renal = system: A498 renal

In the case of `CCCCOP1(=O)C=C(C)C(=C(Cl)Cl)C(C)=C1` (configuration not stated), the TGI (786-0 renal) is reported as 53 µM, the TGI (CAKI-1 renal) is reported as 27.8 µM and the TGI (SF-539 CNS) is reported as 83.3 µM. For the same compound, the TGI (SR leukemia) was 29.9 µM, the TGI (CCRF-CEM leukemia) was > 41.4 µM and the TGI (SNB-78 CNS) was 6.04 µM. For the same compound, the TGI (HCC-2998 colon) was 52.3 µM, the TGI (SK-MEL-2 melanoma) was 5.11 µM and the TGI (KM12 colon) was 4.45 µM. For the same compound, the TGI (HT29 colon) was 29.9 µM, the TGI (NCI-H23 lung) was 34.7 µM and the TGI (SK-MEL-5 melanoma) was > 32.9 µM. For the same compound, the TGI (SF-268 CNS) was 27.3 µM, the TGI (HOP-18 NSCLC) was 82.2 µM and the TGI (OVCAR-8 ovarian) was > 54.2 µM. The TGI (NCI-H460 lung) was 36 µM, the TGI (NCI-H226 lung) was 13 µM and the TGI (IGROV1 ovarian) was 49 µM. The TGI (NCI-H522 lung) was 11 µM, the TGI (HCT-15 colon) was 40.8 µM and the TGI (M19-MEL melanoma) was 32.9 µM. For the same compound, the TGI (HOP-62 NSCLC) was 32.7 µM, the TGI (RXF 393 renal) was 24.4 µM and the TGI (DMS 273 small cell lung) was 16.6 µM. For the same compound, the TGI (UO-31 renal) was 45.3 µM, the TGI (RPMI-8226 leukemia) was > 24.4 µM and the TGI (SF-295 CNS) was 25.9 µM. For the same compound, the TGI (SK-MEL-28 melanoma) was 23.9 µM, the TGI (HL-60(TB) leukemia) was 8.26 µM and the TGI (EKVX NSCLC) was > 100 µM. For the same compound, the TGI (OVCAR-3 ovarian) was 39.1 µM, the TGI (OVCAR-5 ovarian) was > 100 µM and the TGI (DMS 114 small cell lung) was 10.8 µM. The TGI (K-562 leukemia) was > 100 µM, the TGI (U251 CNS) was 22.4 µM and the TGI (MALME-3M melanoma) was 31.6 µM. The TGI (KM20L2 colon) was 5.13 µM, the TGI (M14 melanoma) was 54.8 µM and the TGI (SW-620 colon) was > 40 µM. The TGI (MOLT-4 leukemia) was > 48.2 µM, the TGI (SNB-19 CNS) was > 77.9 µM and the TGI (A549 NSCLC) was > 41.5 µM. It also gave a TGI (UACC-257 melanoma) of 11.5 µM, a TGI (COLO 205 colon) of 8.97 µM and a TGI (XF 498 CNS) of 46.2 µM. The TGI (UACC-62 melanoma) was 21.8 µM, the TGI (HCT-116 colon) was 6.29 µM and the TGI (SK-OV-3 ovarian) was 49.8 µM. The TGI (DLD-1 colon) was 38.9 µM, the TGI (LOX IMVI melanoma) was 33.1 µM and the TGI (SNB-75 CNS) was > 94.4 µM. The TGI (ACHN renal) was 23.6 µM, the TGI (HOP-92 NSCLC) was 4.88 µM and the TGI (OVCAR-4 ovarian) was > 91.1 µM. The TGI (TK-10 renal) was 44.1 µM, the TGI (RXF-631 renal) was 33.9 µM and the TGI (SN12C renal) was 34.8 µM.
For `CC(=O)O[C@H]1CCC(C)=CCC[C@@]2(C)C(CC[C@@H]2[C@@H](C)/C=C/C(C)C)c2ccc(cc2C(=O)O)C1` (some centres not stated), the TGI (SR leukemia) was 7.61 µM, the TGI (CCRF-CEM leukemia) was 12.2 µM and the TGI (SNB-78 CNS) was 10.1 µM. It also gave a TGI (KM12 colon) of 16.5 µM, a TGI (HT29 colon) of 13.6 µM and a TGI (NCI-H23 lung) of 6.63 µM. It also gave a TGI (A498 renal) of 19.8 µM, a TGI (OVCAR-8 ovarian) of 14 µM and a TGI (NCI-H460 lung) of 10.8 µM. The TGI (IGROV1 ovarian) was 8.53 µM, the TGI (NCI-H522 lung) was 6.47 µM and the TGI (M19-MEL melanoma) was 14 µM. For the same compound, the TGI (HOP-62 NSCLC) was 7.49 µM, the TGI (RXF 393 renal) was 7.67 µM and the TGI (DMS 273 small cell lung) was 13.3 µM. It also gave a TGI (UO-31 renal) of 9.82 µM, a TGI (SF-295 CNS) of 8.43 µM and a TGI (SK-MEL-28 melanoma) of 16.9 µM. The TGI (HL-60(TB) leukemia) was 3.86 µM, the TGI (EKVX NSCLC) was 30.5 µM and the TGI (OVCAR-5 ovarian) was 8.43 µM. For the same compound, the TGI (K-562 leukemia) was 11.9 µM, the TGI (U251 CNS) was 8.25 µM and the TGI (KM20L2 colon) was 14.1 µM. It also gave a TGI (M14 melanoma) of 20.3 µM, a TGI (MOLT-4 leukemia) of 4.79 µM and a TGI (SNB-19 CNS) of 13 µM. It also gave a TGI (UACC-257 melanoma) of 14.8 µM, a TGI (UACC-62 melanoma) of 3.79 µM and a TGI (HCT-116 colon) of 11.9 µM. The TGI (SK-OV-3 ovarian) was 13.8 µM, the TGI (ACHN renal) was 15.5 µM and the TGI (HOP-92 NSCLC) was 13.3 µM. It also gave a TGI (TK-10 renal) of 13.7 µM and a TGI (RXF-631 renal) of 24.5 µM.
